Source: ChEMBL document CHEMBL1201862, “PubChem BioAssay data set” (2004)
Where “and” joins values, the source holds several entries; their conditions need not be identical. Identical values can stand only once.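 Five concentrations, 48 hours, 96-well plates. GI50 is the concentration that inhibits growth by half.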 Calls of active or inactive are those of the source. No stated cut-off is given here; in the data, active = GI50 up to about 1.1 µM and inactive = higher.

Experiments:
Assay in all cases: inhibition of tumour cell growth, NCI panel, 48 h
A549 = system: A549
BT-549 = system: BT-549
CCRF-CEM = system: CCRF-CEM
COLO 205 = system: COLO 205
HCC 2998 = system: HCC 2998
HT-29 = system: HT-29
MCF7 = system: MCF7
MDA-MB-435 = system: MDA-MB-435
MDA-N = system: MDA-N
NCI-H226 = system: NCI-H226
NCI-H23 = system: NCI-H23
NCI-H460 = system: NCI-H460
OVCAR-5 = system: OVCAR-5
SNB-19 = system: SNB-19
SW-620 = system: SW-620
TK-10 = system: TK-10
U-251 = system: U-251
UACC-257 = system: UACC-257
SK-OV-3 = system: SK-OV-3

Measured: GI50

CC(C)(C)OC(=O)NC(CSCc1ccc(C(=O)c2ccccc2)cc1)C(=O)O (stereo not drawn)
inactive: A549 > 100 µM | BT-549 > 100 µM | CCRF-CEM > 100 µM | COLO 205 > 100 µM | HCC 2998 > 100 µM | HT-29 > 100 µM | MCF7 > 100 µM | MDA-MB-435 > 100 µM | MDA-N > 100 µM | NCI-H226 > 100 µM | NCI-H23 > 100 µM | NCI-H460 > 100 µM | OVCAR-5 > 100 µM | SNB-19 > 100 µM | SW-620 > 100 µM | TK-10 > 100 µM | U-251 > 100 µM | UACC-257 > 100 µM

CC(=O)Nc1ccc(COC(O)CN2CCCCC2)cc1[N+](=O)[O-] (stereo not drawn)
inactive: A549 > 100 µM | BT-549 > 100 µM | CCRF-CEM > 100 µM | COLO 205 > 100 µM | HCC 2998 > 100 µM | HT-29 > 100 µM | MCF7 > 100 µM | MDA-MB-435 > 100 µM | MDA-N > 100 µM | NCI-H226 > 100 µM | NCI-H23 > 100 µM | NCI-H460 > 100 µM | OVCAR-5 > 100 µM | SNB-19 > 100 µM | SW-620 > 100 µM | TK-10 > 100 µM | U-251 > 100 µM | UACC-257 > 100 µM

Cc1ccc(/C=C2\NC(=S)NC2=O)cc1
inactive: A549 > 100 µM | BT-549 > 100 µM | CCRF-CEM > 100 µM | COLO 205 > 100 µM | HCC 2998 > 100 µM | HT-29 > 100 µM | MCF7 > 100 µM | MDA-MB-435 > 100 µM | MDA-N > 100 µM | NCI-H226 > 100 µM | NCI-H23 > 100 µM | OVCAR-5 > 100 µM | SK-OV-3 > 100 µM | SNB-19 > 100 µM | SW-620 > 100 µM | TK-10 > 100 µM | U-251 > 100 µM

O=C1c2ccccc2C(=O)N1n1c(Cc2ccccc2)n[nH]c1=O
inactive: A549 > 100 µM | BT-549 > 100 µM | CCRF-CEM > 100 µM | COLO 205 > 100 µM | HCC 2998 > 100 µM | HT-29 > 100 µM | MCF7 > 100 µM | MDA-MB-435 > 100 µM | MDA-N > 100 µM | NCI-H226 > 100 µM | NCI-H23 > 100 µM | NCI-H460 > 100 µM | OVCAR-5 > 100 µM | SNB-19 > 100 µM | SW-620 > 100 µM | TK-10 > 100 µM | U-251 > 100 µM | UACC-257 > 100 µM

O=C(CSc1nnc(-c2ccccn2)s1)N/N=C/c1ccc([N+](=O)[O-])cc1
inactive: A549 58.5 µM | BT-549 56.2 µM | CCRF-CEM > 100 µM | COLO 205 > 100 µM | HT-29 > 100 µM | MCF7 > 100 µM | MDA-MB-435 > 100 µM | MDA-N > 100 µM | NCI-H226 > 100 µM | NCI-H23 > 100 µM | NCI-H460 > 100 µM | OVCAR-5 > 100 µM | SK-OV-3 35.2 µM | SNB-19 21.9 µM | SW-620 > 100 µM | TK-10 21.7 µM | U-251 14.5 µM | UACC-257 > 100 µM

O=C1CC(C(OCc2ccccc2)C(OCc2ccccc2)C(COCc2ccccc2)OCc2ccccc2)CC(=O)N1 (stereo not drawn)
inactive: A549 72.4 µM | BT-549 > 100 µM | COLO 205 > 100 µM | HCC 2998 > 75 µM | HT-29 > 75 µM | MCF7 > 100 µM and 51.9 µM | MDA-MB-435 > 75 µM | MDA-N > 75 µM | NCI-H226 > 100 µM | NCI-H23 > 75 µM | NCI-H460 > 75 µM | OVCAR-5 > 75 µM | SNB-19 > 75 µM | SW-620 > 100 µM | TK-10 > 75 µM | UACC-257 > 100 µM

CCN(CC)C1CCC(C2c3cc4c(cc3OC(N3CCOCC3)C2C)OCO4)CC1 (stereo not drawn)
inactive: A549 27.5 µM | BT-549 16.9 µM | CCRF-CEM 27.2 µM | COLO 205 7.98 µM | HCC 2998 10 µM | HT-29 5.75 µM | MCF7 22.6 µM | MDA-MB-435 6.81 µM | MDA-N 4.28 µM | NCI-H23 19.6 µM | NCI-H460 16.3 µM | OVCAR-5 36.4 µM | SNB-19 71.4 µM | SW-620 16.1 µM | TK-10 > 30.6 µM | U-251 37.1 µM | UACC-257 18.4 µM

O=c1[nH]c(=S)[nH]c(-c2ccccc2)c1Cc1c(O)ccc2ccccc12 [CAMBINOL]
inactive: A549 32.2 µM | BT-549 27.1 µM | CCRF-CEM 19.9 µM | COLO 205 21.5 µM | HT-29 39.4 µM | MCF7 33 µM | MDA-MB-435 31 µM | MDA-N 27.9 µM | NCI-H226 29.6 µM | NCI-H23 29.6 µM | NCI-H460 48.2 µM | OVCAR-5 33.4 µM | SK-OV-3 46.1 µM | SNB-19 37.2 µM | SW-620 42.8 µM | TK-10 29.1 µM | U-251 36.1 µM | UACC-257 27.2 µM

Cc1c(S(=O)(=O)N/C(=N\O)Nc2ccc(Cl)c(Cl)c2)sc2ccc(Cl)cc12
inactive: A549 24.7 µM | BT-549 17.7 µM | CCRF-CEM 26.8 µM | COLO 205 17.9 µM | HCC 2998 19.9 µM | HT-29 14.4 µM | MCF7 24.9 µM | MDA-MB-435 17.9 µM | MDA-N 17.5 µM | NCI-H226 20.9 µM | NCI-H23 17.8 µM | OVCAR-5 21.6 µM | SNB-19 19.1 µM | SW-620 39.4 µM | TK-10 17.7 µM | U-251 21.3 µM | UACC-257 19.9 µM

CSc1ncc2c(n1)-c1ccccc1OC2N1CCOCC1 (stereo not drawn)
inactive: A549 97.7 µM | BT-549 49.5 µM | CCRF-CEM 47.1 µM | COLO 205 > 100 µM | HT-29 90.4 µM | MCF7 55.8 µM | MDA-MB-435 > 100 µM | MDA-N > 100 µM | NCI-H226 85.7 µM | NCI-H23 > 100 µM | NCI-H460 41.5 µM | OVCAR-5 > 100 µM | SK-OV-3 > 100 µM | SNB-19 68.2 µM | SW-620 > 100 µM | TK-10 43.3 µM | U-251 > 100 µM | UACC-257 81.8 µM

O=C(O)c1cc2cc(c1)/N=C/c1ccccc1OCc1cccc(n1)COc1ccccc1/C=N/2
inactive: A549 > 25 µM | BT-549 23.6 µM | CCRF-CEM 9.71 µM | COLO 205 > 25 µM | HT-29 19 µM | MCF7 6.79 µM | MDA-MB-435 3.78 µM | MDA-N 4.53 µM | NCI-H226 10.9 µM | NCI-H23 > 25 µM | NCI-H460 > 25 µM | OVCAR-5 > 25 µM | SK-OV-3 > 25 µM | SNB-19 17.3 µM | SW-620 9.68 µM | TK-10 13.6 µM | U-251 7.66 µM | UACC-257 > 25 µM
